# Experimental data: US20240082212A1, “USE OF MDMA FOR TREATMENT OF STRESS-RELATED DISORDERS” (priority 2022, published 2024)
# “Also recorded” adds a separate entry of the source.
# What was measured:
# Serotonin 5-HT2B = Serotonin 5-HT2B (Homo sapiens, UniProt P41595); assay: Eurofins Panlabs radioligand binding panel, serotonin 5-HT2B; conditions: 10 uM
# C57BL/6J mice = assay: Head twitch response (HTR); assay type: in vivo, mouse; conditions: 30 minutes after injection
# Procedure: Male C57BL/6J mice at 6-8 weeks of age were purchased from Jackson Laboratories and housed four per cage in a climate and humidity-controlled room in a vivarium at the University of California, San Diego. The room operated on a reverse light cycle (lights on at 1900 h, off at 0700 h) with food and water available ad libitum, except during testing. All testing was performed during 1000 h and 1800 h. After a minimum of 1 week acclimation to the housing facility, mice were anesthetized using a mixture of ketamine (100 mg/kg IP) and xylazine (10 mg/kg IP). Under deep anesthesia, an incision was made in the scalp and a small neodymium magnet (4.57 mm×4.57 mm×2.03 mm) was attached to the cranium using cyanoacrylate and dental cement. After at least a 2-week recovery period, the mouse was removed from the home cage and injected intraperitoneally with the test article or vehicle (0.9% sterile saline). Immediately, the mouse was placed in a glass cylinder surrounded by a magnetometer coil and the head twitch response (HTR) was assessed for 30 minutes (Halberstadt and Geyer, 2013). The output of the coil was recorded using a Powerlab/8SP with LabChart v.7.3.2 (ADInstruments). Coil voltage was amplified, low-pass filtered (2-10 kHz cut-off frequency) to remove interference, digitized and sampled at 20 kHz. Head twitches were identified using a validated technique based on artificial intelligence (Halberstadt, 2020). Events in the recordings were transformed into a visual representation in the time-frequency domain and deep features were extracted using the pretrained convolutional neural network ResNet-50, and the images were subsequently classified using a Support Vector Machine algorithm.
# Test articles (R,S-MDA, R(−)-MDA, S-(+)MDA), R,S-MDMA, R(−)-MDMA and S(+)-MDMA) were supplied by the NIDA Drug Supply Program as neat powders. Racemic MDA and MDMA and their enantiomers were dissolved in saline and injected IP at a volume of 5 mL/kg. Each dose was calculated based on the salt form of the compounds. For each treatment condition, six groups of mice (n=5-6/group) were treated with vehicle or the test drug (0.1, 0.3, 1, 3, or 10 mg/kg) and HTR assessed for 30 minutes immediately following injections. To avoid carryover effects, each treatment condition was performed at least seven days apart. Total number of mice used for the experiment was 63.
# CD (Sprague Dawley) rats = assay: Rat functional observation battery (FOB) neurobehavioral evaluation after cumulative SC dosing; assay type: in vivo
# Procedure: The observations were assessed through a rat functional observation battery (FOB) and continuous physiological measurements on the day of cumulative dosing, which are provided in further detail below.
# Methods. A total of 42 adult male CD® (Sprague Dawley) rats (Charles River Laboratories) were surgically implanted with DSI radiotelemetry devices by personnel at Charles River Laboratories Raleigh, NC, per their test site SOPs. Telemetry devices supported continuous recording of temperature, activity, blood pressure and heart rate. Telemeterized rats were shipped to the Charles River Laboratories testing facility (Mattawan, MI) and acclimated to the environment for at least 1 week prior to experimentation. Animals were pair-housed in solid bottom cages with nonaromatic bedding. On the dosing day, animals were singly housed and then returned to the paired cohort following the dosing/telemetry recording phase. Diet (Lab Diet® Certified Rodent Diet #5CR4) and tap water via an automatic water system were available ad libitum, except during designated procedures. Temperature and humidity were maintained according to the Testing Facility SOP. Animals were randomized into treatment groups using a standard, by weight, measured value randomization procedure. Body weight was determined for each rat prior to dosing.
# As illustrated in the Table, a total of 36 rats were included in the study. The vehicle and 2 test article doses were administered in a volume of 1 mL/kg to each of 3 groups of n=12 telemeterized rats via subcutaneous injection four times on a given day, followed by neurobehavioral evaluations. This series was repeated 3 times on study. Each group received all 3 dose levels of the applicable test or control article in ascending order with a 1-week washout between dose levels.
# Mortality/cage side clinical observations were conducted for all study animals at least twice daily beginning upon receipt through termination, except on days of receipt and termination where frequency was at least once daily. Detailed clinical observations were conducted for all study animals prior to each of the four cumulative doses in a series. Individual body weights were conducted for all study animals at transfer, prior to randomization, on the day of dosing on each of the 3 cycles of dosing. The body weights recorded at transfer and prior to randomization are not reported but are maintained in the study file. Veterinary care was available throughout the course of the study, and animals were examined by the veterinary staff as needed based on clinical signs or other changes. All animals were provided with HydroGel the night prior to their respective dosing days to potentially mitigate any animal welfare issues related to fluid loss/dehydration.
# Neurobehavioral evaluations (blinded) were conducted for all study animals 1 hour following the last (4th) cumulative dose of the series. The neurobehavioral parameters evaluated included: activity measurements (arousal/alertness, posture/body carriage, stereotypy, rearing, and appearance), autonomic measurements (exophthalmus, lacrimation, erected fur, pupil response, salivation, defecation, and palpebral closure/ptosis), excitability measurements (vocalizations, startle response, ease of removal, handling reactivity, and convulsions), neuromuscular measurements (gait/mobility, grip strength/response, air righting reflex, tremor, and body tone), physiological measurements (respiration and body temperature), and sensorimotor measurements (touch response/tactile reflex and thermal response).
# [1] = Rat plasma pharmacokinetics after cumulative (QID) SC injections; conditions: for dose dependence of Cmax and AUC0-27 hr: QID SC; for AUC0-27 hr / AUC0-27 hr/Dose / AUCTlast / Cmax / Cmax/Dose / Tlast / Tmax: male rat plasma
# [2] = 1 h after last of 4 hourly SC injections, R-MDMA and racemic MDMA 10, 20 mg/kg/day, S-MDMA 5, 10 mg/kg/day
# [3] = 1 h after last of 4 hourly SC injections, racemic MDMA 10, 20 mg/kg/day, S-MDMA 5, 10 mg/kg/day
# [4] = FOB, cumulative SC dosing, dose groups stated in the value, listed as Rac-MDMA
# [5] = FOB, cumulative SC dosing, dose groups stated in the value, listed as Rac.-MDMA
# [6] = metabolite S-MDA after QID SC S-MDMA, total 5 mg/kg/day
# [7] = metabolite after QID SC parent, total 10 mg/kg/day
# [8] = metabolite after QID SC parent, total 20 mg/kg/day
# Serotonin 5-HT2B, sequence (P41595 whole entry): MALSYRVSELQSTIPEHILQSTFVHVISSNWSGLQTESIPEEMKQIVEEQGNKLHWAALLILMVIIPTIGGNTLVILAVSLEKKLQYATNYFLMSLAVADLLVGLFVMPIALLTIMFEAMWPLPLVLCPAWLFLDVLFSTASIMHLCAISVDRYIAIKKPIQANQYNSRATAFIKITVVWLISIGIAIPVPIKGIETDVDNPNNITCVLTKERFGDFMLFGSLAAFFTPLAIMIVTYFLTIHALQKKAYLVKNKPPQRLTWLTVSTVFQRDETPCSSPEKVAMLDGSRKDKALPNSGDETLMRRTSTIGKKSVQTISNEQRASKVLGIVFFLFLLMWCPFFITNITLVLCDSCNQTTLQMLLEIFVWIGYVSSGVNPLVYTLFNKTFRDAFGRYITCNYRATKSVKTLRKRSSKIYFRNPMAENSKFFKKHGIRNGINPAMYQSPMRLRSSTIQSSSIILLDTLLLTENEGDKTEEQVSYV
structure (smiles),measurement,setting,value
"CNC(C)Cc1ccc2c(c1)OCO2 (racemic) [Racemic MDMA, 3,4-methylenedioxymethamphetamine]",% inhibition of binding or activity,Serotonin 5-HT2B,85%
same,head twitch response (HTR) compared to control (vehicle),"C57BL/6J mice; 3 mg/kg IP, listed as R,S-MDMA",decrease in HTR
same,arousal/alertness and rearing,CD (Sprague Dawley) rats; [2],general increase in overall levels of arousal/alertness and rearing
same,ease of removal from the home cage and handling reactivity (excitability),CD (Sprague Dawley) rats; [2],Dose-dependent increased difficulty in removal from the home cage and increased handling reactivity
same,forelimb grip strength,CD (Sprague Dawley) rats; [2],dose-dependent statistically significant decreases in forelimb grip strength
same,salivation and erected fur (autonomic),CD (Sprague Dawley) rats; [2],Dose-dependent increased salivation and erected fur
same,unkempt appearance,CD (Sprague Dawley) rats; [2],increased incidence of unkempt appearance in a dose-dependent manner
same,general gait/mobility changes,CD (Sprague Dawley) rats; [3],General gait/mobility changes were only observed
same,respiration,CD (Sprague Dawley) rats; [3],Rapid respiration was noted
same,Rank Order Activity Measurement Effects,CD (Sprague Dawley) rats; [4],Rac-MDMA (0 mg/kg/day) < Rac-MDMA (20 mg/kg/day) < Rac-MDMA (10 mg/kg/day); also recorded: S-MDMA (10 mg/kg/day) = R-MDMA (10 mg/kg/day) = Rac-MDMA (10 mg/kg/day)
same,Rank Order Autonomic Measurement Effects,CD (Sprague Dawley) rats; [4],R-MDMA (20 mg/kg/day) < S-MDMA (10 mg/kg/day) < Rac-MDMA (20 mg/kg/day); also recorded: Rac-MDMA (0 mg/kg/day) < Rac-MDMA (10 mg/kg/day) < Rac-MDMA (20 mg/kg/day); also recorded: R-MDMA (10 mg/kg/day) < S-MDMA (10 mg/kg/day) = Rac-MDMA (20 mg/kg/day)
same,Rank Order Excitability Measurement Effects,CD (Sprague Dawley) rats; [4],S-MDMA (5 mg/kg/day) < Rac-MDMA (10 mg/kg/day); also recorded: R-MDMA (20 mg/kg/day) = S-MDMA (10 mg/kg/day) < Rac-MDMA (20 mg/kg/day); also recorded: Rac-MDMA (0 mg/kg/day) < Rac-MDMA (10 mg/kg/day) < Rac-MDMA (20 mg/kg/day); also recorded: R-MDMA (10 mg/kg/day) < S-MDMA (10 mg/kg/day) < Rac-MDMA (20 mg/kg/day)
same,Rank Order Neuromuscular Measurement Effects,CD (Sprague Dawley) rats; [4],R-MDMA (20 mg/kg/day) = S-MDMA (10 mg/kg/day) < Rac-MDMA (20 mg/kg/day); also recorded: Rac-MDMA (0 mg/kg/day) < Rac-MDMA (10 mg/kg/day) < Rac-MDMA (20 mg/kg/day); also recorded: R-MDMA (10 mg/kg/day) < S-MDMA (10 mg/kg/day) < Rac-MDMA (20 mg/kg/day)
same,Rank Order Physiological Measurement Effects,CD (Sprague Dawley) rats; [4],R-MDMA (20 mg/kg/day) < S-MDMA (10 mg/kg/day) = Rac-MDMA (20 mg/kg/day); also recorded: Rac-MDMA (0 mg/kg/day) < Rac-MDMA (10 mg/kg/day) < Rac-MDMA (20 mg/kg/day); also recorded: R-MDMA (10 mg/kg/day) < S-MDMA (10 mg/kg/day) = Rac-MDMA (20 mg/kg/day)
same,Rank Order Sensorimotor Measurement Effects,CD (Sprague Dawley) rats; [4],S-MDMA (5 mg/kg/day) < Rac-MDMA (10 mg/kg/day) < R-MDMA (10 mg/kg/day); also recorded: S-MDMA (10 mg/kg/day) < Rac-MDMA (20 mg/kg/day) < R-MDMA (20 mg/kg/day); also recorded: Rac-MDMA (0 mg/kg/day) < Rac-MDMA (10 mg/kg/day) < Rac-MDMA (20 mg/kg/day)
same,Rank Order Activity Measurement Effects,CD (Sprague Dawley) rats; [5],S-MDMA (5 mg/kg/day) < R-MDMA (10 mg/kg/day) < Rac.-MDMA (10 mg/kg/day); also recorded: Rac.-MDMA (20 mg/kg/day) < S-MDMA (10 mg/kg/day) < R-MDMA (20 mg/kg/day); also recorded: Rac.-MDMA (20 mg/kg/day) < S-MDMA (10 mg/kg/day) < R-MDMA (10 mg/kg/day)
same,Rank Order Autonomic Measurement Effects,CD (Sprague Dawley) rats; [5],R-MDMA (10 mg/kg/day) < S-MDMA (5 mg/kg/day) < Rac.-MDMA (10 mg/kg/day)
same,Rank Order Excitability Measurement Effects,CD (Sprague Dawley) rats; [5],R-MDMA (10 mg/kg/day) < S-MDMA (5 mg/kg/day) < Rac.-MDMA (10 mg/kg/day)
same,Rank Order Neuromuscular Measurement Effects,CD (Sprague Dawley) rats; [5],R-MDMA (10 mg/kg/day) < S-MDMA (5 mg/kg/day) < Rac.-MDMA (10 mg/kg/day)
same,Rank Order Physiological Measurement Effects,CD (Sprague Dawley) rats; [5],R-MDMA (10 mg/kg/day) < S-MDMA (5 mg/kg/day) < Rac.-MDMA (10 mg/kg/day)
same,thermal response times,"CD (Sprague Dawley) rats; at levels at least two-fold that of vehicle-treated groups, 1 h after last of 4 hourly SC injections",Statistically significant increases in thermal response times
same,neuromuscular observations,CD (Sprague Dawley) rats; primarily noted at 20 mg/kg/day racemic-MDMA (4 hourly SC injections),"observations of ataxia, hunched posture, and tip-toe walking"
"C[C@H](N)Cc1ccc2c(c1)OCO2 [S-MDA, S(+)-MDA]",% inhibition of binding or activity,Serotonin 5-HT2B,82%
same,head twitch response (HTR) compared to control (vehicle),C57BL/6J mice; 10 mg/kg IP,reduction of HTR
same,dose dependence of Cmax and AUC0-27 hr,[1]; from 5 to 10 mg/kg/day S-MDMA,approximately dose proportional manner
same,dose dependence of Cmax and AUC0-27 hr,[1]; from 5 to 20 mg/kg/day S-MDMA,greater than dose proportional manner
same,AUC0-27 hr,[1]; [6],1280 ng·h/mL
same,AUC0-27 hr/Dose,[1]; [6],256 *kg*ng/mL/mg
same,AUCTlast,[1]; [6],1270 ng·h/mL
same,Cmax,[1]; [6],342 ng/mL
same,Cmax/Dose,[1]; [6],68.4 kg·ng/mL/mg
same,Tlast,[1]; [6],9 h
same,Tmax,[1]; [6],4 h
same,Cmax,"[1]; metabolite after QID SC parent (R-MDA after R-MDMA, S-MDA after S-MDMA, total MDA after Rac-MDMA), total 10 mg/kg/day",957 ng/mL
same,Cmax,"[1]; metabolite after QID SC parent (R-MDA after R-MDMA, S-MDA after S-MDMA, total MDA after Rac-MDMA), total 20 mg/kg/day",2500 ng/mL
same,AUC0-27 hr,[1]; [7],6770 ng·h/mL
same,AUC0-27 hr/Dose,[1]; [7],677 *kg*ng/mL/mg
same,AUCTlast,[1]; [7],5180 ng·h/mL
same,Cmax/Dose,[1]; [7],95.7 kg·ng/mL/mg
same,Tlast,[1]; [7],11 h
same,Tmax,[1]; [7],5 h
same,AUC0-27 hr,[1]; [8],26300 ng·h/mL
same,AUC0-27 hr/Dose,[1]; [8],1320 *kg*ng/mL/mg
same,AUCTlast,[1]; [8],26300 ng·h/mL
same,Cmax/Dose,[1]; [8],125 kg·ng/mL/mg
same,Tlast,[1]; [8],27 h
same,Tmax,[1]; [8],5 h
